“And” between values parts separate entries of the source, which are not always exact repeats. Equal values may be shown once.
Key:
α-amylase = biological target: T1, α-amylase (Sus scrofa, UniProt P00690); experiment: Three-dimensional fluorescence spectroscopy of α-amylase complexes; conditions: 298 K; TAPP 2.5, THPP 10, TCPP 10, Fe–TCPP 12.5, Ni–TCPP 17.5, Cu–TCPP 10 μg/mL
T1 sequence (P00690 16-511): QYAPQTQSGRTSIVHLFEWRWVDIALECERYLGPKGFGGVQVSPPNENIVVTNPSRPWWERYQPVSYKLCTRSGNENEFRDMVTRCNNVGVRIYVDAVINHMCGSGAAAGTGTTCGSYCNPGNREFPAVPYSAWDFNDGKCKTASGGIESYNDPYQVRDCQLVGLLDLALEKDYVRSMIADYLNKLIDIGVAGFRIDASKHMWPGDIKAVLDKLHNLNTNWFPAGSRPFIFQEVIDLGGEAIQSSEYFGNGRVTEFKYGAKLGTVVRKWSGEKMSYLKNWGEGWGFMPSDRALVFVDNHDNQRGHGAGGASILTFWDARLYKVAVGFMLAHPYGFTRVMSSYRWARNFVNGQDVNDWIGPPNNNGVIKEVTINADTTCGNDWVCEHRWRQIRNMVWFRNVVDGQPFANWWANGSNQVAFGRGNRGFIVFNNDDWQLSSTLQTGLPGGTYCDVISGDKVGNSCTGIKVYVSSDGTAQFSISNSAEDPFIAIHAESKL

α-glucosidase [1] = biological target: T2, α-glucosidase (Saccharomyces cerevisiae, UniProt P53341); experiment: Fluorescence quenching, binding and thermodynamics with α-glucosidase; conditions: for binding constants K: 310 K; for quenching mechanism of α-glucosidase fluorescence: Stern–Volmer plots; for quenching mechanism of α-glucosidase fluorescence / ΔH^0 / ΔS^0: 298–310 K; for ΔH^0 / ΔS^0: Van’t Hoff
Procedure: In the α-amylase experiment, a series of porphyrins and amylase (200 U/L) were mixed in a volume ratio of 1:1. In the α-glucosidase experiment, the glucosidase concentration was 400 U/L, mixed in a volume ratio of 1:1; the samples were maintained at three different temperatures (298, 304, and 310 K) for 30 min, with excitation at 280 nm and emission scanning from 300 to 500 nm.
The Stern–Volmer equation [35] was adopted to determine the quenching mechanisms between six porphyrin compounds and both enzymes in the experimental group, with Formula (6):(6) F0/F=1+Ksv[Q]=1+Kqτ0[Q]
The Stern–Volmer equation was adapted based on experimental data to more accurately characterize the quenching behavior [36], with Formula (7):(7) F0/F=e^Ksv[Q]=e^Kqτ0[Q]
In the formula, the fluorescence quenching ratio was calculated as F0/F, where F0 corresponds to the emission intensity of pure α-amylase solution (control) and F denotes the intensity measured after the incremental addition of porphyrin ligands. KSV and Kq denote the Stern–Volmer quenching constant and the bimolecular quenching rate constant, respectively, τ0 (10^−8 s) is the average fluorescence lifetime of the fluorophore in the absence of quencher, and [Q] indicates the concentration of porphyrin compounds.
Due to the presence of an internal filtration effect, a decrease in the fluorescence intensity of the system may occur. Therefore, all fluorescence data were corrected using Formula (8) to eliminate the internal filtration effect.(8) Fcor=Fobse^(Aex+Aem)/2
The evaluation of the interaction forces between porphyrin compounds and the two enzymes can be achieved by calculating thermodynamic parameters. When both ΔH^0 and ΔS^0 are positive, the predominant interaction force is hydrophobic. When both ΔH^0 and ΔS^0 are negative, the main forces are hydrogen bonding and van der Waals forces. When ΔH^0 < 0 and ΔS^0 > 0, the primary interaction is electrostatic attraction.
The thermodynamic parameters were calculated using Formulas (9) and (10), and then the Van’t Hoff plot for the interactions between the porphyrin compounds and the two enzymes was generated by plotting lnKa on the Y-axis versus 1/T on the X-axis.(9) lnKa=−ΔH^0/RT+ΔS^0/R (10) ΔG^0=ΔH^0−TΔS^0=−RTlnKa

α-glucosidase [2] = biological target: T2, α-glucosidase; experiment: FTIR secondary structure analysis of α-GLU complexes; conditions: enzyme–porphyrin molar ratio 1:2, amide I band
Description: A molar ratio of 1:2 (α-amylase/α-glucosidase)–porphyrin solution was placed in a cryocentrifugal concentrator and the dried solid sample was mixed with dry KBr and measured using a Nicolet IS-50 FTIR Spectrometer (ThermoFisher, Waltham, MA, USA) with a scanning range of 4000–400 cm^−1 and a resolution of 4 cm^−1. The overlapping peaks in the amide I band (1700–1600 cm^−1) were further analyzed into multiple feature sub-peaks, and quantitative analysis of the relative content of various secondary structures in proteins using curve fitting methods was performed.

α-glucosidase [3] = biological target: T2, α-glucosidase; experiment: α-Glucosidase inhibitory activity assay (pNPG substrate); assay type: biochemical; conditions: 37 °C
Procedure: The experimental groups were supplemented with different concentrations of porphyrin compounds, followed by the addition of 100 μL of 5 mmol/L pNPG. After thorough mixing, the samples were pre-incubated at 37 °C for 10 min. Subsequently, the reaction was terminated by adding 0.1 mol/L of sodium carbonate (Na2CO3) solution. Following a 3 min reaction period, the absorbance of the solutions at 405 nm was measured using a microplate reader. The inhibition rate (%) was subsequently calculated using Formula (1).
Using the enzyme inhibition rate as the y-axis and the inhibitor concentration as the x-axis, the IC50 value was calculated through linear regression fitting with GraphPad Prism software (5.0).

HepG2 cells = experiment: MTT cytotoxicity assay; assay type: cell-based, human; conditions: HepG2, 50–200 μg/mL, 24 h
Procedure: The cytotoxicity of six porphyrin compounds against human hepatocellular carcinoma HepG2 cells was evaluated using the MTT assay. HepG2 cells were seeded into 96-well plates at a density of 5000 cells per well and cultured for 24 h at 37 °C in a 5% CO2 incubator. Then, 100 µL of sample solutions at various concentrations (50, 100, and 200 µg/mL) was added to the experimental wells, with blank control wells and solvent control wells also included. The cells were further incubated for 24 h. After incubation, 10 µL of MTT solution (5 mg/mL) was added to each well, and the plates were incubated for another 4 h. Subsequently, 100 µL of Formazan solubilization solution was added to each well, followed by gentle mixing. The plates were returned to the incubator and maintained until complete dissolution of Formazan crystals was observed under a microscope. The absorbance at 570 nm was measured using a microplate reader (Meigu Molecular Instrument Company, Shanghai, China), and the survival rate of HepG2 cells was calculated.(12) Cell viability=As-Ab/Ac-Ab×100%
In the formula, As represents the absorbance of the sample well, Ac denotes the absorbance of the blank control well (without the drug), and Ab refers to the absorbance of the solvent control well (devoid of both cells and the drug).

T2 sequence (P53341 whole entry): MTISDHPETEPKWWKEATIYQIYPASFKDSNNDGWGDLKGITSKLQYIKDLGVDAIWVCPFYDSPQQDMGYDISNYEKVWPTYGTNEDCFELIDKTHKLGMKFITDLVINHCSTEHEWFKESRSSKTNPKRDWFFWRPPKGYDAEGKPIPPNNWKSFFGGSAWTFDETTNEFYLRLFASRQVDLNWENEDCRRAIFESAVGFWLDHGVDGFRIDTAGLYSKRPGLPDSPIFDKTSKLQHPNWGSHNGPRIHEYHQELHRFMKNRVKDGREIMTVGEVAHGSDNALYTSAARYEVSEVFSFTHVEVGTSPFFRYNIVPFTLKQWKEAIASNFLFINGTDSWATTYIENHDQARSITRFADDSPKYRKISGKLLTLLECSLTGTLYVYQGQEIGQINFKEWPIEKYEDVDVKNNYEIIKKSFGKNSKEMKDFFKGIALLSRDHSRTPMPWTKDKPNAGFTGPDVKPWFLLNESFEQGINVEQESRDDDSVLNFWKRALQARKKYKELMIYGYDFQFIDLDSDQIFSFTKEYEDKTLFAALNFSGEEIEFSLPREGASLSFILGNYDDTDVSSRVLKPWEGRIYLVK

Row | Compound | Peak 1 Fluorescence Intensity (α-amylase) | Peak 2 Fluorescence Intensity (α-amylase) | binding constants K (α-glucosidase [1]) | quenching mechanism of α-glucosidase fluorescence (α-glucosidase [1]) | Kq (α-glucosidase [1]; T 298 K) | Ksv (α-glucosidase [1]; T 298 K) | n (number of binding sites) (α-glucosidase [1]; T 298 K) | ΔG^0 (α-glucosidase [1]; T 298 K) | Kq (α-glucosidase [1]; T 304 K) | Ksv (α-glucosidase [1]; T 304 K) | n (number of binding sites) (α-glucosidase [1]; T 304 K) | ΔG^0 (α-glucosidase [1]; T 304 K) | Kq (α-glucosidase [1]; T 310 K) | Ksv (α-glucosidase [1]; T 310 K) | n (number of binding sites) (α-glucosidase [1]; T 310 K) | ΔG^0 (α-glucosidase [1]; T 310 K) | ΔH^0 (α-glucosidase [1]) | ΔS^0 (α-glucosidase [1]) | Random Coil (α-glucosidase [2]) | α-Helix (α-glucosidase [2]) | also measured
1 | iron (III) meso-tetra (4-carboxyphenyl) porphyrin chloride [Fe–TCPP] | 270.8 | 28.26 | (1.02 ± 0.02) × 10^5 L·mol^−1 | static quenching | 14.52 ± 0.07 ×10^12 L/mol/s | 14.52 ± 0.07 ×10^4 L/mol | 1.01 | -7.113 ± 0.012 kcal/mol | 13.18 ± 0.05 ×10^12 L/mol/s | 13.18 ± 0.05 ×10^4 L/mol | 1.00 | -7.094 ± 0.017 kcal/mol | 12.20 ± 0.07 ×10^12 L/mol/s | 12.20 ± 0.07 ×10^4 L/mol | 0.98 | -7.103 ± 0.014 kcal/mol | -7.385 ± 0.014 kcal/mol | −3.88 ± 0.01 J/mol/k | 16.75% and 16.75 ± 0.03% | 22.48 ± 0.05% | Ka (binding constant) (α-glucosidase [1]; T 298 K): 1.65 ± 0.03 ×10^5 L/mol; Ka (binding constant) (α-glucosidase [1]; T 304 K): 1.26 ± 0.03 ×10^5 L/mol; Ka (binding constant) (α-glucosidase [1]; T 310 K): 1.02 ± 0.02 ×10^5 L/mol; β-Antiparallel (α-glucosidase [2]): 8.02% and 8.02 ± 0.02%; IC50 α-GLU (α-glucosidase [3]): 23.93 ± 0.53 µg/mL
2 | Nc1ccc(-c2c3nc(c(-c4ccc(N)cc4)c4ccc([nH]4)c(-c4ccc(N)cc4)c4nc(c(-c5ccc(N)cc5)c5ccc2[nH]5)C=C4)C=C3)cc1 [TAPP] | 317.2 | 7.013 | (0.65 ± 0.02) × 10^5 L·mol^−1 | static quenching | 6.25 ± 0.04 ×10^12 L/mol/s | 6.25 ± 0.04 ×10^4 L/mol | 1.14 | -7.424 ± 0.019 kcal/mol | 5.71 ± 0.01 ×10^12 L/mol/s | 5.71 ± 0.01 ×10^4 L/mol | 1.09 | -7.165 ± 0.012 kcal/mol | 5.66 ± 0.02 ×10^12 L/mol/s | 5.66 ± 0.02 ×10^4 L/mol | 1.01 | -6.826 ± 0.012 kcal/mol | -22.23 ± 0.019 kcal/mol | −207.76 ± 0.14 J/mol/k | 23.93 ± 0.05% | 22.82 ± 0.08% | β-Antiparallel (α-glucosidase [2]): 1.96 ± 0.01%; β-Sheet (α-glucosidase [2]): 12.99 ± 0.13%; β-Turn (α-glucosidase [2]): 38.30 ± 0.08%
3 | O=C(O)c1ccc(-c2c3nc(c(-c4ccc(C(=O)O)cc4)c4ccc([nH]4)c(-c4ccc(C(=O)O)cc4)c4nc(c(-c5ccc(C(=O)O)cc5)c5ccc2[nH]5)C=C4)C=C3)cc1 [TCPP] | 461.6 | 58.06 | (0.97 ± 0.02) × 10^5 L·mol^−1 | static quenching | 7.45 ± 0.04 ×10^12 L/mol/s | 7.45 ± 0.04 ×10^4 L/mol | 1.30 | -8.368 ± 0.014 kcal/mol | 4.90 ± 0.02 ×10^12 L/mol/s | 4.90 ± 0.02 ×10^4 L/mol | 1.19 | -7.651 ± 0.017 kcal/mol | 4.22 ± 0.09 ×10^12 L/mol/s | 4.22 ± 0.09 ×10^4 L/mol | 1.07 | -7.075 ± 0.012 kcal/mol | -40.504 ± 0.0239 kcal/mol | −451.52 ± 0.12 J/mol/k | 22.15 ± 0.04% | 22.71 ± 0.05% | β-Antiparallel (α-glucosidase [2]): 9.57 ± 0.02%; β-Sheet (α-glucosidase [2]): 12.03 ± 0.02%; β-Turn (α-glucosidase [2]): 33.54 ± 0.07%
4 | Oc1ccc(-c2c3nc(c(-c4ccc(O)cc4)c4ccc([nH]4)c(-c4ccc(O)cc4)c4nc(c(-c5ccc(O)cc5)c5ccc2[nH]5)C=C4)C=C3)cc1 [THPP] | 297.5 | 32.69 | (3.39 ± 0.03) × 10^5 L·mol^−1 | static quenching | 7.40 ± 0.06 ×10^12 L/mol/s | 7.40 ± 0.06 ×10^4 L/mol | 1.29 | -8.439 ± 0.0239 kcal/mol | 6.97 ± 0.06 ×10^12 L/mol/s | 6.97 ± 0.06 ×10^4 L/mol | 1.23 | -8.212 ± 0.022 kcal/mol | 6.69 ± 0.04 ×10^12 L/mol/s | 6.69 ± 0.04 ×10^4 L/mol | 1.16 | -7.844 ± 0.014 kcal/mol | -23.22 ± 0.022 kcal/mol | −207.25 ± 0.13 J/mol/k | 23.74 ± 0.06% | 21.19 ± 0.05% | cytotoxicity (in words) (HepG2 cells): certain cytotoxic effects; β-Antiparallel (α-glucosidase [2]): 7.07 ± 0.01%; β-Sheet (α-glucosidase [2]): 12.79 ± 0.03%; β-Turn (α-glucosidase [2]): 35.20 ± 0.11%
